Laboratory results from publication PMC6736568, “Discovery of Novel Anti-cryptosporidial Activities From Natural Products by in vitro High-Throughput Phenotypic Screening” (Frontiers in Microbiology, 2019).
Where a name gives a salt, the structure may show the parent alone. Read-outs that look alike come from different tables or passages of the source.

Tests used:
Cryptosporidium parvum = assay: qRT-PCR assay of the growth of C. parvum in vitro in HCT-8 host cells (primary and secondary screening, EC50); assay type: cell-based; details: Cryptosporidium parvum, HCT-8; for inhibition at 10 µM: primary screening at 10 uM, read-out: Inhibition (%); for inhibition at 3.3 µM: secondary screening at 3.3 uM, read-out: % Inhibition (3.3 uM)
[1] = primary screening at 10 uM, treated vs control

SMILES | Hs18S ΔCT (HCT-8 host cells (Hs18S); human, 41 h, 10 μM) | cytotoxicity at 41 h, 10 µM (in vitro; human) | inhibition at 10 µM (Cryptosporidium parvum) | cytotoxicity at 10 µM (in vitro) | Hs18S ΔCT (HCT-8 host cells (Hs18S); [1]) | cytotoxicity at 41 h, 10 µM (in vitro) | inhibition at 3.3 µM (Cryptosporidium parvum)
CC(C)c1ccc2c(c1O)CC[C@H]1C3=C(CC[C@]21C)C(=O)OC3 [TRIPTOPHENOLIDE] | -0.29 | -22.1% | -24.5% | – | – | – | –
COc1cc2occc2c2oc(=O)ccc12 [ISOBERGAPTENE] | – | – | 2% | 11% | 0.17 | – | –
C[C@]12CC[C@H]3C(=CCc4cc(O)ccc43)[C@@H]1CCC2=O [EQUILIN] | – | – | -53.6% | – | -0.60 | -51.5% | –
C=C(C)[C@@H]1[C@H]2OC(=O)[C@@H]1[C@]1(O)C[C@H]3O[C@]34C(=O)O[C@H]2[C@]14C [PICROTOXININ] | – | – | 23.1% | -75.3% | -0.81 | – | –
CC(=O)N[C@@H](CC(=O)N[C@@H](CCC(=O)O)C(=O)O)C(=O)O [SPAGLUMIC ACID] | – | – | 31.3% | 11.9% | 0.18 | – | –
CC1(C)C=Cc2cc3ccc(=O)oc3cc2O1 [XANTHYLETIN] | – | – | 1.74% | 8.1% | 0.12 | – | –
CC(=O)Oc1cc(OC(C)=O)c2c(c1)O[C@H](c1ccc(OC(C)=O)c(OC(C)=O)c1)[C@@H](OC(C)=O)C2 [CATECHIN PENTAACETATE] | – | – | 10.7% | -19.6% | -0.26 | – | –
COc1ccc(C(=O)/C=C/c2ccccc2)cc1 [4'-METHOXYCHALCONE] | – | -12% | 20% | – | -0.16 | – | –
C/C=C(\C)C(=O)O[C@H]1C[C@@H](OC(C)=O)[C@@]2(C(=O)OC)CO[C@H]3[C@@H](O)[C@@](C)([C@]45O[C@@]4(C)[C@H]4C[C@@H]5O[C@@H]5OC=C[C@@]54O)[C@H]4[C@]1(CO[C@]4(O)C(=O)OC)[C@@H]32 [AZADIRACHTIN] | 0.00 | -0.1% | 23.7% | – | – | – | –
CC(=O)Oc1c2c(c(CC=C(C)C)c3c1C(=O)C1=C[C@@H]4CC5C(C)(C)OC(C/C=C(\C)C(=O)O)(C4=O)[C@@]15O3)OC(C)(CCC=C(C)C)C=C2 (stereo partly shown) [ACETYL I[…]] | – | – | 95.2% | 66.4% | 1.57 | – | 27%
COc1cc(OC)c2c(c1)O[C@H](c1ccc(OC)c(OC)c1)[C@@H](O)C2 | – | – | 17.5% | -38.4% | -0.47 | – | –
COC1(C)CCC2OC2(C)CCC2C1CC2(C)C (stereo not shown) [2-METHOXY-5 (6)EPOXY-TETRAHYDROCARYOPHYLLENE] | -0.15 | -11.1% | -24.7% | – | – | – | –
COc1cc2c(cc1OC)[C@@]13CCN4CC5=CCO[C@H]6CC(=O)N2[C@H]1[C@H]6[C@H]5C[C@H]43 [BRUCINE] | – | – | 49.9% | -8.2% | -0.11 | – | –
COc1ccc2c(c1)OC/C(=C/c1ccc(OC)c(OC)c1)C2=O [SAPPANONE A TRIMETHYL ETHER] | – | – | 3.07% | 14.7% | 0.23 | – | –
O=c1c(O)c(-c2ccc(O)c(O)c2)oc2cc(O)cc(O)c12 [QUERCETIN] | – | – | 78.4% | 21.1% | 0.34 | – | -27%
C=CCCCCCCCCCCCC(O)CC(O)COC(C)=O (stereo not shown) [AVOCATIN A] | 0.00 | -0.1% | 46% | – | – | – | –
CC1(C)C(=O)[C@@H]2C[C@@]3(O)C4=CC(=O)O[C@@H](c5ccoc5)[C@]4(C)CC[C@@H]3[C@@](C)(C2=O)[C@H]1CC(=O)O [8-HYDROX[…]] | – | – | -11% | 63% | 1.43 | – | –
NCCc1c[nH]c2ccc(O)cc12 [SEROTONIN HYDROCHLORIDE] | – | – | 10.2% | -31.7% | -0.40 | – | –
Cc1cc(O)cc(O)c1C(=O)O [ORSELLINIC ACID] | – | -19.3% | 37.5% | – | -0.25 | – | –
COC(=O)CC[C@@H](C)[C@H]1CC[C@H]2[C@@H]3[C@H](O)C[C@@H]4C[C@H](O)CC[C@]4(C)[C@H]3C[C@H](O)[C@]12C [CHOLIC ACID, METHYL ESTER] | -0.11 | -7.7% | 42.1% | – | – | – | –
CC(C)=CCC1=C(O)C(=O)c2ccccc2C1=O [LAPACHOL] | -0.60 | -52% | 91.3% | – | – | – | -98%
CN1CCCCC1c1ccc(-c2cccnc2)nc1 (stereo not shown) [ANABASAMINE HYDROCHLORIDE] | – | – | 8.75% | 24.3% | 0.40 | – | –
C=C(C)[C@H]1Cc2c(ccc3c(=O)c4c(oc23)COc2cc(OC)c(OC)cc2-4)O1 [DEHYDROROTENONE] | – | – | -38.5% | -4.9% | -0.07 | – | –
CN(C)[C@@H]1C(O)=C(C(N)=O)C(=O)[C@@]2(O)C(O)=C3C(=O)c4c(O)ccc(Cl)c4[C@@](C)(O)[C@H]3C[C@@H]12 [CHLORTETRACYCLINE HYDROCHLORIDE] | – | – | -14.1% | -2% | -0.03 | – | –
C[C@H]1C(=O)CC[C@@H]2[C@]1(C)CC[C@H]1[C@@]2(C)CC[C@@]2(C)[C@@H]3CC(C)(C)CC[C@]3(C)CC[C@]12C [FRIEDELIN] | – | – | 20.8% | -17.6% | -0.23 | – | –
C1CCN2C[C@@H]3C[C@@H](CN4CCCC[C@@H]34)[C@H]2C1 [SPARTEINE SULFATE] | – | – | -14.6% | 3% | 0.04 | – | –
O[C@H]1[C@H](O)[C@@H](O)[C@H](O)[C@@H](O)[C@H]1O [INOSITOL] | – | 5.5% | 11.9% | – | 0.08 | – | –

Continued, in another order:

Hs18S ΔCT (HCT-8 host cells (Hs18S); human, 41 h, 10 μM) | SMILES | cytotoxicity at 41 h, 10 µM (in vitro; human) | inhibition at 10 µM (Cryptosporidium parvum) | cytotoxicity at 10 µM (in vitro) | Hs18S ΔCT (HCT-8 host cells (Hs18S); [1]) | cytotoxicity at 41 h, 10 µM (in vitro) | inhibition at 3.3 µM (Cryptosporidium parvum)
-0.14 | COc1cc(-c2coc3cc(O[C@@H]4O[C@H](CO)[C@@H](O)[C@H](O)[C@H]4O)c(OC)c(O)c3c2=O)cc(O)c1OC [IRIDIN] | -10% | -13.3% | – | – | – | –
-0.21 | N[C@@H](Cc1ccc(O)c(O)c1)C(=O)O [LEVODOPA] | -15.4% | -9.67% | – | – | – | –
0.41 | COC(=O)c1c(C)c2c(c(C)c1O)OC(=O)c1c(C)c(Cl)c(O)c(Cl)c1O2 [LEOIDIN] | 24.9% | 16.7% | – | – | – | –
-0.14 | Oc1ccc([C@H]2Oc3cc(O)cc(O)c3C[C@H]2O)cc1 [EPIAFZELECHIN (2R,3R)(-)] | -10.2% | -2.1% | – | – | – | –
-0.05 | C/C1=C\CCC(=O)C2CC(C)(C)C2CC1 (stereo not shown) [15-NORCARYOPHYLLEN-3-ONE] | -3.6% | -15.7% | – | – | – | –
0.13 | O=C1C=C2CC3(O)COc4c(ccc(O)c4O)C3=C2C=C1O (stereo not shown) [HEMATEIN] | 8.6% | 10.1% | – | – | – | –
0.31 | CC(=O)N(O)CCCCCNC(=O)CCC(=O)N(O)CCCCCNC(=O)CCC(=O)N(O)CCCCCN [DEFEROXAMINE MESYLATE] | 19.6% | -48.5% | – | – | – | –
-0.05 | O=c1ccc2ccccc2o1 [COUMARIN] | -3.8% | 13% | – | – | – | –
-0.05 | COC(=O)c1c(OC)cc2c(c1C)Oc1c(Cl)c(O)c(Cl)c(C)c1C(=O)O2 [GANGALEOIDIN] | -3.3% | -21.6% | – | – | – | –
-0.15 | NCCSSCCN [CYSTAMINE DIHYDROCHLORIDE] | -11.2% | 5.08% | – | – | – | –
0.03 | Cn1cnc2c1c(=O)[nH]c(=O)n2C [THEOBROMINE] | 2.2% | -18.1% | – | – | – | –
0.02 | Cc1cc2nc3c(=O)[nH]c(=O)nc-3n(C[C@H](O)[C@H](O)[C@H](O)CO)c2cc1C [RIBOFLAVIN] | 1.1% | -26.6% | – | – | – | –
-0.02 | Cc1cc(OC(=O)c2c(C)cc(O)cc2O)cc(O)c1C(=O)O [LECANORIC ACID] | -1.2% | -20% | – | – | – | –
0.50 | COC(=O)[C@H]1[C@H]2C[C@@H]3c4[nH]c5cc(OC)ccc5c4CCN3C[C@H]2C[C@@H](OC(=O)c2cc(OC)c(OC)c(OC)c2)[C@@H]1OC [RESERPINE] | 29.4% | 87% | – | – | – | 24%
0.05 | CCCCCCCCCCCCCCCC(=O)NCCO [PALMIDROL] | 3.5% | -7.35% | – | – | – | –
0.03 | O=C1C=C2CC3(O)COc4cc(O)ccc4C3=C2C=C1O (stereo not shown) [BRAZILEIN] | 2.2% | -12.2% | – | – | – | –
-0.42 | COc1ccc2c(c1)OCc1c-2oc2cc(OC)ccc12 [DEHYDROVARIABILIN] | -33.6% | 22% | – | – | – | –
0.05 | COc1ccc2c(c1)OC[C@@H](Cc1ccc(OC)c(OC)c1)[C@@H]2O [3-DESHYDROXYSAPPANOL TRIMETHYL ETHER] | 3.2% | 7.69% | – | – | – | –
-0.12 | Oc1ccc2c(c1)OC[C@]1(O)Cc3cc(O)c(O)cc3[C@H]21 [BRAZILIN] | -8.9% | 8.3% | – | – | – | –
0.39 | COc1ccc(-c2cc(=O)c3c(OC)c(OC)c(OC)cc3o2)cc1OC [SINENSETIN] | 23.6% | 42.8% | – | – | – | –
-0.06 | CCCCCC1C(=O)CCC1CC(=O)OC (stereo not shown) [DIHYDROJASMONIC ACID, METHYL ESTER] | -4% | -8.77% | – | – | – | –
-0.15 | C=C[C@](C)(O)CC[C@@H]1[C@@]2(C)CCCC(C)(C)[C@@H]2CC[C@@]1(C)O [SCLAREOL] | -10.7% | 7.29% | – | – | – | –
